A value given as a limit tells only on which side of the number the result lay.

Chain of purified human Factor XIa (P03951 388-625): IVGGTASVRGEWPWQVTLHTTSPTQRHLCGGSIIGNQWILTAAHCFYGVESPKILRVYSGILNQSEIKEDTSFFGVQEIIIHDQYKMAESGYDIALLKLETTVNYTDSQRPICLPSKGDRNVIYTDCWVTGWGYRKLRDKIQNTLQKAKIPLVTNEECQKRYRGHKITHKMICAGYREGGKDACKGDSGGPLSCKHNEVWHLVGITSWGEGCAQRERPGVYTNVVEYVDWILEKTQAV
Chain of purified human Factor XIa (P03951 19-387 partner): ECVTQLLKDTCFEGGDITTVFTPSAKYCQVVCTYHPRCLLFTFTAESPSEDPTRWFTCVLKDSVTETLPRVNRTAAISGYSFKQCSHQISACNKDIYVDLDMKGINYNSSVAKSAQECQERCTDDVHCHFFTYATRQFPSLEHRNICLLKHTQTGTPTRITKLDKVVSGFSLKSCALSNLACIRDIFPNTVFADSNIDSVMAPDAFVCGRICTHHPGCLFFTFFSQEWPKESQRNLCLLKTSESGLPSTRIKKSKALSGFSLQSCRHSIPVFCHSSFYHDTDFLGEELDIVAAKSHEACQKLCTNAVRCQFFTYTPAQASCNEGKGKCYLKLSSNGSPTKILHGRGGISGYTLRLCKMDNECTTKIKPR

This experiment deals with purified human Factor XIa (Homo sapiens (Human), UniProt P03951). Nature of the experiment: Factor XIa assay (chromogenic substrate S-2366 hydrolysis, Ki). It is filed as biochemical. The note with it: measured at 37° C. Here is the method:
The effectiveness of compounds of the present invention as inhibitors of the coagulation Factors XIa, VIIa, IXa, Xa, XIIa, plasma kallikrein or thrombin, can be determined using a relevant purified serine protease, respectively, and an appropriate synthetic substrate. The rate of hydrolysis of the chromogenic or fluorogenic substrate by the relevant serine protease was measured both in the absence and presence of compounds of the present invention. […] A decrease in the rate of absorbance or fluorescence change in the presence of inhibitor is indicative of enzyme inhibition. Such methods are known to one skilled in the art. The results of this assay are expressed as the inhibitory constant, Ki.
Factor XIa determinations were made in 50 mM HEPES buffer at pH 7.4 containing 145 mM NaCl, 5 mM KCl, and 0.1% PEG 8000 (polyethylene glycol; JT Baker or Fisher Scientific). Determinations were made using purified human Factor XIa at a final concentration of 25-200 pM (Haematologic Technologies) and the synthetic substrate S-2366 (pyroGlu-Pro-Arg-pNA; CHROMOGENIX® or AnaSpec) at a concentration of 0.0002-0.001 M.
The Michaelis constant, Km, for substrate hydrolysis by each protease, was determined at 25° C. or 37° C. in the absence of inhibitor. Values of Ki were determined by allowing the protease to react with the substrate in the presence of the inhibitor. […] The following relationships were used to calculate Ki values: (Vmax*S)/(Km+S); (vo−vs)/vs=I/(Ki(1+S/Km)) for a competitive inhibitor with one binding site; or vs/vo=A+(B−A)/(1+(I/IC50)^n); and Ki=IC50/(1+S/Km) for a competitive inhibitor where: […]
What is called Ki is the dissociation constant of the complex between target and ligand, obtained from inhibition or displacement. `COC(=O)Nc1ccc2c(c1)NC(=O)CCCCCC(C(=O)NCCc1cc(Cl)ccc1-n1cnnn1)NC2=O` (racemic) [Example 1, (±)-Methyl N-[8-({2-[5-chloro-2-(1H-1,2,3,4-tetrazol-1-yl)phenyl]ethyl}carbamoyl)-2,10-dioxo-1,2,3,4,5,6,7,8,9,10-decahydro-1,9-benzodiazacyclododecin-13-yl]carbamate] registered a Ki of 0.0179 µM.

Regarding `COC(=O)Nc1ccc2c(c1)NC(=O)CCCCCC(C(=O)NC1CCN(C(=N)N)CC1)NC2=O` (racemic) [Example 4, (±)-Methyl N-{8-[(1-carbamimidoylpiperidin-4-yl)carbamoyl]-2,10-dioxo-1,2,3,4,5,6,7,8,9,10-decahydro-1,9-benzodiazacyclododecin-13-yl}carbamate], the Ki is 1.49 µM. Compared with the last compound, the Ki is about 83-fold higher.

The compound `COC(=O)Nc1ccc2c(c1)NC(=O)CCCCCC(C(=O)NCC1CCN(C(=N)N)CC1)NC2=O` (racemic) [Example 5, (±)-Methyl N-(8-{[(1-carbamimidoylpiperidin-4-yl)methyl]carbamoyl}-2,10-dioxo-1,2,3,4,5,6,7,8,9,10-decahydro-1,9-benzodiazacyclododecin-13-yl)carbamate] gave a Ki of 0.825 µM.

With `COC(=O)Nc1ccc2c(c1)NC(=O)CCCCCC(C(=O)NCCC1CCN(C(=N)N)CC1)NC2=O` (racemic) [Example 6, (±)-Methyl N-(8-{[2-(1-carbamimidoylpiperidin-4-yl)ethyl]carbamoyl}-2,10-dioxo-1,2,3,4,5,6,7,8,9,10-decahydro-1,9-benzodiazacyclododecin-13-yl)carbamate], the affinity corresponds to a Ki of 0.627 µM.

In turn, `COC(=O)Nc1ccc2c(c1)NC(=O)CCCCCC(C(=O)NC1Cc3ccccc3NC1=O)NC2=O` (racemic) [Example 7, (±)-Methyl N-{2,10-dioxo-8-[(2-oxo-1,2,3,4-tetrahydroquinolin-3-yl)carbamoyl]-1,2,3,4,5,6,7,8,9,10-decahydro-1,9-benzodiazacyclododecin-13-yl}carbamate] returned a Ki of 0.708 µM.

`COC(=O)Nc1ccc2c(c1)NC(=O)CCCCCC(C(=O)NCc1csc3ccc(Cl)cc13)NC2=O` (racemic) [Example 8, (±)-Methyl N-(8-{[(5-chloro-1-benzothiophen-3-yl)methyl]carbamoyl}-2,10-dioxo-1,2,3,4,5,6,7,8,9,10-decahydro-1,9-benzodiazacyclododecin-13-yl)carbamate] registered a Ki of 1.34 µM.

The compound `COC(=O)Nc1ccc2c(c1)NC(=O)CCCCCC(C(=O)N1CCCC(c3cccc(OC)c3)C1)NC2=O` (racemic) [Example 10, (±)-Methyl N-{8-[3-(3-methoxyphenyl)piperidine-1-carbonyl]-2,10-dioxo-1,2,3,4,5,6,7,8,9,10-decahydro-1,9-benzodiazacyclododecin-13-yl}carbamate] showed a Ki of 2.62 µM.

With `COC(=O)Nc1ccc2c(c1)NC(=O)CCC=CCC(C(=O)NCCc1cc(Cl)ccc1-n1cnnn1)NC2=O` (racemic) [Example 22, (E/Z)-(±)-Methyl N-[8-({2-[5-chloro-2-(1H-1,2,3,4-tetrazol-1-yl)phenyl]ethyl}carbamoyl)-2,10-dioxo-1,2,3,4,7,8,9,10-octahydro-1,9-benzodiazacyclododecin-13-yl]carbamate], the inhibitory constant (Ki) is less than 0.005 µM.

`O=C1CCC=CCC(C(=O)NCCc2cc(Cl)ccc2-n2cnnn2)NC(=O)c2ccccc2N1` (racemic) [Example 27, (E/Z)-(±)-N-{2-[5-Chloro-2-(1H-1,2,3,4-tetrazol-1-yl)phenyl]ethyl}-2,10-dioxo-1,2,3,4,7,8,9,10-octahydro-1,9-benzodiazacyclododecine-8-carboxamide]: the affinity corresponds to a Ki of 0.0391 µM.

`N=C(N)N1CCC(CNC(=O)C2CC=CCCC(=O)Nc3ccccc3C(=O)N2)CC1` (racemic) [Example 29, (E/Z)-(±)-N-[(1-Carbamimidoylpiperidin-4-yl)methyl]-2,10-dioxo-1,2,3,4,7,8,9,10-octahydro-1,9-benzodiazacyclododecine-8-carboxamide] showed a Ki of 1.4 µM.

As to `N=C(N)N1CCC(NC(=O)C2C/C=C\CCC(=O)Nc3ccccc3C(=O)N2)CC1` (racemic) [Example 30, (Z)-(±)-N-(1-Carbamimidoylpiperidin-4-yl)-2,10-dioxo-1,2,3,4,7,8,9,10-octahydro-1,9-benzodiazacyclododecine-8-carboxamide], affinity was put at a Ki of 2.2 µM.

`N=C(N)N1CCC(NC(=O)C2C/C=C/CCC(=O)Nc3ccccc3C(=O)N2)CC1` (racemic) [Example 31, (E)-(±)-N-(1-Carbamimidoylpiperidin-4-yl)-2,10-dioxo-1,2,3,4,7,8,9,10-octahydro-1,9-benzodiazacyclododecine-8-carboxamide] showed an inhibition constant Ki of 0.811 µM.

Regarding `COC(=O)Nc1ccc2c(c1)NC(=O)CCCCCC(C(=O)NCCc1cc(Cl)ccc1-n1cnnn1)NC2=O` (single isomer, unassigned) [Example 2, Methyl N-[8-({2-[5-chloro-2-(1H-1,2,3,4-tetrazol-1-yl)phenyl]ethyl}carbamoyl)-2,10-dioxo-1,2,3,4,5,6,7,8,9,10-decahydro-1,9-benzodiazacyclododecin-13-yl]carbamate], affinity was put at a Ki of 2.18 µM.

For `COC(=O)Nc1ccc2c(c1)NC(=O)CCCCCC(C(=O)NCCc1cc(Cl)ccc1-n1cnnn1)NC2=O` (single isomer, unassigned) [Example 3, Methyl N-[8-({2-[5-chloro-2-(1H-1,2,3,4-tetrazol-1-yl)phenyl]ethyl}carbamoyl)-2,10-dioxo-1,2,3,4,5,6,7,8,9,10-decahydro-1,9-benzodiazacyclododecin-13-yl]carbamate], the Ki worked out at 0.0419 µM. This Ki lies about 52-fold lower than the previous one.

Consider `COC(=O)Nc1ccc2c(c1)NC(=O)CC/C=C\CC(C(=O)NCCc1cc(Cl)ccc1-n1cnnn1)NC2=O` (single isomer, unassigned) [Example 23, (Z)-Methyl N-[8-({2-[5-chloro-2-(1H-1,2,3,4-tetrazol-1-yl)phenyl]ethyl}carbamoyl)-2,10-dioxo-1,2,3,4,7,8,9,10-octahydro-1,9-benzodiazacyclododecin-13-yl]carbamate], for which the affinity, expressed as Ki, was 0.157 µM.

Consider `COC(=O)Nc1ccc2c(c1)NC(=O)CC/C=C\CC(C(=O)NCCc1cc(Cl)ccc1-n1cnnn1)NC2=O` (single isomer, unassigned) [Example 24, (Z)-Methyl N-[8-({2-[5-chloro-2-(1H-1,2,3,4-tetrazol-1-yl)phenyl]ethyl}carbamoyl)-2,10-dioxo-1,2,3,4,7,8,9,10-octahydro-1,9-benzodiazacyclododecin-13-yl]carbamate], for which the affinity corresponds to a Ki of 0.153 µM.

In the case of `COC(=O)Nc1ccc2c(c1)NC(=O)CC/C=C/CC(C(=O)NCCc1cc(Cl)ccc1-n1cnnn1)NC2=O` (single isomer, unassigned) [Example 25, (E)-Methyl N-[8-({2-[5-chloro-2-(1H-1,2,3,4-tetrazol-1-yl)phenyl]ethyl}carbamoyl)-2,10-dioxo-1,2,3,4,7,8,9,10-octahydro-1,9-benzodiazacyclododecin-13-yl]carbamate], the Ki is less than 0.005 µM.

The compound `COC(=O)Nc1ccc2c(c1)NC(=O)CC/C=C/CC(C(=O)NCCc1cc(Cl)ccc1-n1cnnn1)NC2=O` (single isomer, unassigned) [Example 26, (E)-Methyl N-[8-({2-[5-chloro-2-(1H-1,2,3,4-tetrazol-1-yl)phenyl]ethyl}carbamoyl)-2,10-dioxo-1,2,3,4,7,8,9,10-octahydro-1,9-benzodiazacyclododecin-13-yl]carbamate] came in with a Ki of 0.0641 µM.

These data come from US10081623B2, “Diamide macrocycles that are FXIa inhibitors” (BRISTOL-MYERS SQUIBB COMPANY, priority 2014, dated 2018).
